Measured values from US10639284B2, “Immunomodulator compounds” (CHEMOCENTRYX, INC., priority 2016, dated 2020).

biological target: human PD-L1 / Human PD-1 (Homo sapiens (Human), UniProt Q9NZQ7); test: Enzyme-Linked Immunosorbent Assay (ELISA), PD-1/PD-L1 binding; conditions: Table 2; plate-coated human PD-L1, biotinylated human PD-1; read-out: ELISA IC50
Description: Plates were coated with 1 μg/mL of human PD-L1 (obtained from R&D) in PBS overnight at 4° C. The wells were then blocked with PBS containing 2% BSA in PBS (W/V) with 0.05% TWEEN-20 for 1 hour at 37° C. The plates were washed 3 times with PBS/0.05% TWEEN-20 and the samples were diluted to 1:5 in dilution medium in the ELISA plates. Human PD-1 and biotin 0.3 μg/mL (ACRO Biosystems) were added and incubated for 1 hour at 37° C. then washed 3 times with PBS/0.05% TWEEN-20. A second block was added with PBS containing 2% BSA in PBS (W/V)/0.05% TWEEN-20 for 10 min at 37° C. and was washed 3 times with PBS/0.05% TWEEN-20. Streptavidin-HRP was added for 1 hour at 37° C. then washed 3 times with PBS/0.05% TWEEN-20. TMB substrate was added and reacted for 20 min at 37° C. A stop solution (2 N aqueous H2SO4) was added. The absorbance was read at 450 nm using a micro-plate spectrophotometer.
Compounds in Table 2 and Table 3 were prepared by methods as described in the Examples, and evaluated according to the assay below.

human PD-L1 / Human PD-1, sequence (Q9NZQ7 19-239): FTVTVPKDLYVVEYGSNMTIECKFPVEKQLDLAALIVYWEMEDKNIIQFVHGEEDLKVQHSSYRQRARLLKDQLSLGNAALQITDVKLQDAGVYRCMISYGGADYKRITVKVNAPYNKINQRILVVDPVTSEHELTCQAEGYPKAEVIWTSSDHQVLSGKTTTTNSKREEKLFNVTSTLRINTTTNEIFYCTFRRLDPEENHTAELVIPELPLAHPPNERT

COc1cccc(-c2cccc3c2CC[C@@H]3Oc2cc(OCc3cncc(C#N)c3)c(CN3CCC[C@H](O)C3)cc2Cl)c1F [Example 2.060] and N#Cc1cncc(COc2cc(O[C@H]3CCc4c(-c5ccccc5F)cccc43)c(Cl)cc2CN2CC[C@H](O)C2)c1 [Example 2.020] fall in the same range of IC50: 0.1 to 0.5 µM for the first, 0.1 to 0.5 µM for the second.

First: N#Cc1cncc(COc2cc(O[C@@H]3c4cccc(-c5ccccc5F)c4C[C@H]3F)c(Cl)cc2CN[C@@H](CO)C(=O)O)c1 [Example 2.147]
Second: N#Cc1cncc(COc2cc(O[C@H]3CCc4c(-c5ccccc5F)cccc43)c(Cl)cc2CNC(CO)C(=O)NO)c1 (stereo partly shown) [Example 2.166]
The IC50 of the first is lower: less than 0.1 µM for the first, 0.1 to 0.5 µM for the second. The first is the more potent here.

First: N#Cc1cncc(COc2cc(O[C@H]3CCc4c(-c5ccccc5F)cccc43)c(Cl)cc2CN[C@@H](C(=O)O)c2ccc(O)cc2)c1 [Example 2.175]
Second: N#Cc1cncc(COc2cc(O[C@H]3CCc4c(-c5ccccc5F)cccc43)c(Cl)cc2CN[C@@H](C(=O)O)c2ccccc2)c1 [Example 2.176]
The IC50 of the first is higher: 0.1 to 0.5 µM for the first, less than 0.1 µM for the second.

COc1cc(O[C@H]2CCc3c(-c4cccc(OC)c4F)cccc32)c(Cl)cc1CN[C@@H](CO)C(=O)O [Example 2.040] and CCOc1cc(O[C@H]2CCc3c(-c4cccc(OC)c4F)cccc32)c(Cl)cc1CN[C@@H](CO)C(=O)O [Example 2.048] cannot be ordered by IC50: less than 0.1 µM for the first, less than 0.1 µM for the second.

N#Cc1cncc(COc2cc(O[C@H]3CCc4c(-c5ccccc5F)cccc43)c(Cl)cc2CN2CC(O)(C(=O)O)C2)c1 [Example 2.018] and CC1(O)CCN(Cc2cc(Cl)c(O[C@H]3CCc4c(-c5ccccc5F)cccc43)cc2OCc2cncc(C#N)c2)CC1 [Example 2.075] fall in the same range of IC50: 0.1 to 0.5 µM for the first, 0.1 to 0.5 µM for the second.

First: COc1ccc(-c2cccc3c2CC[C@@H]3Oc2cc(OCc3cncc(C#N)c3)c(CN[C@@H](CO)C(=O)O)cc2Cl)c(F)c1 [Example 2.044]
Second: Cc1cccc(-c2cccc3c2CC[C@@H]3Oc2cc(OCc3cncc(C#N)c3)c(CN[C@@H](CO)C(=O)O)cc2Cl)c1F [Example 2.046]
The IC50 of the first is higher: 0.1 to 0.5 µM for the first, less than 0.1 µM for the second. The second is the more potent here.

First: OC1CCN(Cc2cc(Cl)c(O[C@H]3CCc4c(-c5ccccc5F)cccc43)cc2OCc2cnc(Cl)nc2)CC1 [Example 2.111]
Second: COC(=O)c1cccc(COc2cc(O[C@H]3CCc4c(-c5ccccc5F)cccc43)c(Cl)cc2CN2CCC(O)CC2)c1 [Example 2.089]
The IC50 of the first is lower: 0.1 to 0.5 µM for the first, 0.5 to 20 µM for the second.

First: N#Cc1cncc(COc2cc(O[C@H]3CCc4c(-c5ccccc5F)cccc43)c(Cl)cc2CN[C@@H](CC(N)=O)C(=O)O)c1 [Example 2.118]
Second: CC(C)C[C@H](NCc1cc(Cl)c(O[C@H]2CCc3c(-c4ccccc4F)cccc32)cc1OCc1cncc(C#N)c1)C(=O)O [Example 2.091]
The IC50 of the first is lower: less than 0.1 µM for the first, 0.1 to 0.5 µM for the second. The first is the more potent here.

N#Cc1cncc(COc2cc(O[C@@H]3c4cccc(-c5ccccc5F)c4C[C@H]3F)c(Cl)cc2CN2CCC(O)CC2)c1 [Example 2.148] and COc1cccc(-c2cccc3c2CCC3CCOc2cc(OCc3cncc(C#N)c3)c(CN3CCC(O)CC3)cc2Cl)c1F (stereo not shown) [Example 2.087] fall in the same range of IC50: 0.5 to 20 µM for the first, 0.5 to 20 µM for the second.

CCOc1cc(O[C@H]2CCc3c(-c4ccccc4F)cccc32)c(Cl)cc1CN[C@@H](CO)C(=O)O [Example 2.036] and N#Cc1cncc(COc2cc(O[C@H]3CCc4c(-c5ccccc5Cl)cccc43)c(Cl)cc2CN[C@@H](CO)C(=O)O)c1 [Example 2.005] cannot be ordered by IC50: less than 0.1 µM for the first, less than 0.1 µM for the second.

N#Cc1cncc(COc2cc(O[C@H]3CCc4c(-c5ccc6c(c5)OCCO6)cccc43)c(Cl)cc2CN[C@@H](CO)C(=O)O)c1 [Example 2.024] and N#Cc1cncc(COc2cc(O[C@H]3CCc4c(-c5ccc6c(c5F)OCCO6)cccc43)c(Cl)cc2CN[C@@H](CO)C(=O)O)c1 [Example 2.057] cannot be ordered by IC50: less than 0.1 µM for the first, less than 0.1 µM for the second.

First: N#Cc1cncc(COc2cc(OC3CCc4c(-c5ccccc5)cccc43)c(Cl)cc2CNC[C@@H](O)CC(=O)O)c1 (stereo partly shown) [Example 1.002]
Second: C[C@H](O)[C@H](NCc1cc(Cl)c(O[C@H]2CCc3c(-c4ccccc4F)cccc32)cc1OCc1cncc(C#N)c1)C(=O)O [Example 2.127]
The IC50 of the first is higher: 0.1 to 0.5 µM for the first, less than 0.1 µM for the second. The second is the more potent here.

C[C@@H](O)[C@H](NCc1cc(Cl)c(O[C@H]2CCc3c(-c4ccccc4F)cccc32)cc1OCc1cncc(C#N)c1)C(N)=O [Example 2.149] and C[C@H](NCc1cc(Cl)c(O[C@H]2CCc3c(-c4ccccc4F)cccc32)cc1OCc1cncc(C#N)c1)C(N)=O [Example 2.168] fall in the same range of IC50: 0.1 to 0.5 µM for the first, 0.1 to 0.5 µM for the second.

First: CC(C)[C@H](NCc1cc(Cl)c(O[C@H]2CCc3c(-c4ccccc4F)cccc32)cc1OCc1cncc(C#N)c1)C(=O)O [Example 2.123]
Second: CCC(O)C(NCc1cc(Cl)c(O[C@H]2CCc3c(-c4ccccc4F)cccc32)cc1OCc1cncc(C#N)c1)C(=O)O (stereo partly shown) [Example 2.125]
The IC50 of the first is higher: 0.1 to 0.5 µM for the first, less than 0.1 µM for the second.

Compared with C=CC(=O)NCCNCc1cc(Cl)c(O[C@H]2CCc3c(-c4ccccc4F)cccc32)cc1OCc1cncc(C#N)c1 [Example 2.137], C[C@@H](O)[C@H](NCc1cc(Cl)c(O[C@H]2CCc3c(-c4ccc5c(c4Cl)OCCO5)cccc32)cc1OCc1cncc(C#N)c1)C(=O)O [Example 2.160] is lower in IC50: 0.1 to 0.5 µM for the first, less than 0.1 µM for the second.

same assay, conditions: Table 3; plate-coated human PD-L1, biotinylated human PD-1; read-out: ELISA IC50

First: N#Cc1cncc(COc2cc(O[C@H]3CCc4c(-c5ccccc5F)cccc43)c(Cl)cc2CN[C@@H](CC(=O)O)C(=O)O)c1 [Example 3.105]
Second: N#Cc1cncc(COc2cc(O[C@@H]3CCc4c(-c5ccccc5F)cccc43)c(Cl)cc2CN[C@@H](CO)C(=O)O)c1 [Example 3.120]
The IC50 of the first is higher: 0.1 to 0.5 µM for the first, less than 0.1 µM for the second. The second is the more potent here.

First: CCc1cc(CNCc2cc(Cl)c(O[C@H]3CCc4c(-c5ccccc5F)cccc43)cc2OCc2cncc(C#N)c2)on1 [Example 3.085]
Second: N#Cc1cncc(COc2cc(O[C@H]3CCc4c(-c5ccccc5F)cccc43)c(Cl)cc2CNCC(=O)NCC(=O)O)c1 [Example 3.062]
The IC50 of the first is higher: 0.5 to 20 µM for the first, less than 0.1 µM for the second. The second is the more potent here.

N#Cc1cncc(COc2cc(O[C@H]3CCc4c(-c5ccc6c(c5)OCO6)cccc43)c(Cl)cc2CN[C@@H](CO)C(=O)O)c1 [Example 3.122] and N#Cc1cncc(COc2cc(O[C@H]3CCc4c(-c5ccc6c(c5F)OCCO6)cccc43)c(Cl)cc2CN[C@@H](CO)C(=O)O)c1 [Example 3.008] cannot be ordered by IC50: less than 0.1 µM for the first, less than 0.1 µM for the second.

N#Cc1cncc(COc2cc(O[C@H]3CCc4c(-c5ccccc5F)cccc43)c(Cl)cc2CNCCCN2CCS(=O)(=O)CC2)c1 [Example 3.051] and N#Cc1cncc(COc2cc(O[C@H]3CCc4c(-c5ccccc5F)cccc43)c(Cl)cc2CNCCCN2CCN(CCO)CC2)c1 [Example 3.089] fall in the same range of IC50: 0.1 to 0.5 µM for the first, 0.1 to 0.5 µM for the second.

First: N#Cc1cc(Cl)cc(COc2cc(O[C@H]3CCc4c(-c5ccc6c(c5F)OCCO6)cccc43)c(Cl)cc2CN[C@@H](CO)C(=O)O)c1 [Example 3.015]
Second: O=C(O)[C@H](CO)NCc1cc(Cl)c(O[C@H]2CCc3c(-c4ccc5c(c4F)OCCO5)cccc32)cc1OCc1cc(F)cc(Cl)c1 [Example 3.013]
The IC50 of the first is lower: less than 0.1 µM for the first, 0.5 to 20 µM for the second. The first is the more potent here.

First: C[C@@H](O)[C@@H](CC(=O)O)NCc1cc(Cl)c(O[C@H]2CCc3c(-c4ccccc4F)cccc32)cc1OCc1cncc(C#N)c1 [Example 3.116]
Second: N#Cc1cncc(COc2cc(O[C@H]3CCc4c(-c5ccccc5F)cccc43)c(Cl)cc2CN[C@@H](CO)C(=O)O)c1 [Example 3.024]
The IC50 of the first is higher: 0.5 to 20 µM for the first, less than 0.1 µM for the second.

N#Cc1cncc(COc2cc(O[C@H]3CCc4c(-c5ccccc5F)cccc43)c(Cl)cc2CN[C@@H]2CCC[C@H]2O)c1 [Example 3.018] and N#Cc1cncc(COc2cc(O[C@H]3CCc4c(-c5ccccc5F)cccc43)c(Cl)cc2CN[C@@H]2CCCC[C@@H]2O)c1 [Example 3.032] cannot be ordered by IC50: less than 0.1 µM for the first, less than 0.1 µM for the second.

N#Cc1cncc(COc2cc(O[C@H]3CCc4c(-c5ccccc5CO)cccc43)c(Cl)cc2CN[C@@H](CO)C(=O)O)c1 [Example 3.127] and C[C@H](NC(=O)[C@H](C)NCc1cc(Cl)c(O[C@H]2CCc3c(-c4ccccc4F)cccc32)cc1OCc1cncc(C#N)c1)C(=O)O [Example 3.060] cannot be ordered by IC50: less than 0.1 µM for the first, less than 0.1 µM for the second.

N#Cc1cc(COc2cc(O[C@H]3CCc4c(-c5cccc(O)c5F)cccc43)c(Cl)cc2CN[C@@H](CO)C(=O)O)cc(NC=O)c1 [Example 3.020] and N#Cc1cc(C#N)cc(COc2cc(O[C@H]3CCc4c(-c5ccccc5)cccc43)c(Cl)cc2CN[C@@H](CO)C(=O)O)c1 [Example 3.022] cannot be ordered by IC50: less than 0.1 µM for the first, less than 0.1 µM for the second.

First: N#Cc1cncc(COc2cc(O[C@H]3CCc4c(-c5ccc6c(c5F)OCCO6)cccc43)c(Cl)cc2CN[C@@H]2CCC[C@H]2O)c1 [Example 3.033]
Second: N#Cc1cncc(COc2cc(O[C@H]3CCc4c(-c5ccc6c(c5F)OCCO6)cccc43)c(Cl)cc2CN[C@H]2CONC2=O)c1 [Example 3.042]
The IC50 of the first is lower: less than 0.1 µM for the first, 0.5 to 20 µM for the second.

N#Cc1cncc(COc2cc(O[C@H]3CCc4c(-c5ccccc5F)cccc43)c(Cl)cc2CN[C@@H]2CCOC[C@H]2O)c1 [Example 3.037] and N#Cc1cncc(COc2cc(O[C@H]3CCc4c(-c5ccccc5F)cccc43)c(Cl)cc2CN[C@H]2CCC[C@H](O)C2)c1 [Example 3.040] cannot be ordered by IC50: less than 0.1 µM for the first, less than 0.1 µM for the second.

O=C(O)[C@H](CO)NCc1cc(Cl)c(O[C@H]2CCc3c(-c4ccc5c(c4F)OCCO5)cccc32)cc1OCc1cncc(Cl)c1 [Example 3.027] and N#Cc1ccnc(COc2cc(O[C@H]3CCc4c(-c5ccc6c(c5F)OCCO6)cccc43)c(Cl)cc2CN[C@@H](CO)C(=O)O)c1 [Example 3.026] cannot be ordered by IC50: less than 0.1 µM for the first, less than 0.1 µM for the second.

COc1cccc(-c2cccc3c2CC[C@@H]3Oc2cc(OCc3cncc(C#N)c3)c(CN3CCC(O)C(CO)C3)cc2Cl)c1Cl (stereo partly shown) [Example 3.124] gave an IC50 of 0.1 to 0.5 µM.
